Measurements taken from EP4620956A1, “PARP1 INHIBITORS” (Zhejiang Yangli Pharmaceutical Technology Co., Ltd., priority 2022, dated 2024).

How the values were obtained:
A549 PARP2-KO cell line = experiment: Cellular PARylation inhibition, high-content imaging, PARP2-KO; assay type: cell-based; details: PARylation at the cellular level
PARP11 = biological target: T1, PARP11 (Homo sapiens, UniProt Q9NR21); experiment: Inhibition of PARP11 enzyme activity (chemiluminescent assay kit); assay type: biochemical
T1 construct: purchased BPS 80511
T1 sequence (Q9NR21 1-338): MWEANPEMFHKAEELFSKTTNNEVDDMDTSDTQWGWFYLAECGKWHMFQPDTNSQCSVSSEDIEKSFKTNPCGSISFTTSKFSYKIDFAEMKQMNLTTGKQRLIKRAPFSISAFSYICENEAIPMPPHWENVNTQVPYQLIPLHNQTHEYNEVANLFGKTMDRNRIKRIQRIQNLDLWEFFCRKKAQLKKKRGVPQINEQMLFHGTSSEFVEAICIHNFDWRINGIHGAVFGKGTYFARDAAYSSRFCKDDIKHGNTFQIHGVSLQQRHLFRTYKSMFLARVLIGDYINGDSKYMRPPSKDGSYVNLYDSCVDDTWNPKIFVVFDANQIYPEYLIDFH

PARP2 [1] = biological target: T2, PARP2 (Homo sapiens, UniProt Q9UGN5); experiment: DNA trapping capability of PARP2 (HTRF); assay type: biochemical
T2 construct: purchased BPS 80502

A549 PARP1-KO cell lines = experiment: Cellular PARylation inhibition, high-content imaging, PARP1-KO; assay type: cell-based
PARP1 [2] = biological target: T3, PARP1 (Homo sapiens, UniProt P09874); experiment: Inhibition of PARP1 enzyme activity (chemiluminescence); assay type: biochemical
T3 construct: purchased BPS 80501

PARP2 [3] = biological target: T2, PARP2; experiment: PARP2-DNA trapping, fluorescence polarization (FP); assay type: biochemical
PARP6 = biological target: T4, PARP6 (Homo sapiens, UniProt Q2NL67); experiment: Inhibition of PARP6 enzyme activity (chemiluminescence); assay type: biochemical
T4 construct: purchased BPS 80506

DLD-1 WT = experiment: Anti-proliferative activity (CellTiter-Glo, 7 days), DLD-1 WT; assay type: cell-based, human
Procedure: The anti-proliferation experiment of the compounds on tumour cells adopted the most widely used ATP concentration-based detection method at present. MDA-MB-231 and MDA-MB-436 cell lines were obtained from ATCC, DLD-1 human colourectal adenocarcinoma epithelial cells and DLD-1 BRCA2^-/- cells were obtained from Horizon, and the cells were revived. After the cells were stable, the cells were collected. When the viable cell count exceeded 90%, 450-500 cells were seeded into a 384-well plate. The next day, the example compounds with serially diluted concentrations were added. Only buffer was added to the Max well, and 50 µM AZD2281 was added to the Min well. The plate was incubated for 7 days, and on the eighth day, CellTiter-Glo® reagent (Promega, G7573) was added. The plate was incubated at room temperature for 30 minutes, and the values were read on Envision (PE). The inhibition rate was calculated using the fluorescence values from the Max and Min wells, and the dose-response curve was fitted using the analysis software GraphPad Prism 5 to obtain the IC50 value of each compound for the enzyme activity.

PARP1 [4] = biological target: T3, PARP1; experiment: PARP1-DNA trapping, fluorescence polarization (FP); assay type: biochemical
MDA-MB-231 = experiment: Anti-proliferative activity (CellTiter-Glo, 7 days), MDA-MB-231; assay type: cell-based, human
[5] = ratio relative to the PARP1 enzyme activity

T3 sequence (P09874 whole entry): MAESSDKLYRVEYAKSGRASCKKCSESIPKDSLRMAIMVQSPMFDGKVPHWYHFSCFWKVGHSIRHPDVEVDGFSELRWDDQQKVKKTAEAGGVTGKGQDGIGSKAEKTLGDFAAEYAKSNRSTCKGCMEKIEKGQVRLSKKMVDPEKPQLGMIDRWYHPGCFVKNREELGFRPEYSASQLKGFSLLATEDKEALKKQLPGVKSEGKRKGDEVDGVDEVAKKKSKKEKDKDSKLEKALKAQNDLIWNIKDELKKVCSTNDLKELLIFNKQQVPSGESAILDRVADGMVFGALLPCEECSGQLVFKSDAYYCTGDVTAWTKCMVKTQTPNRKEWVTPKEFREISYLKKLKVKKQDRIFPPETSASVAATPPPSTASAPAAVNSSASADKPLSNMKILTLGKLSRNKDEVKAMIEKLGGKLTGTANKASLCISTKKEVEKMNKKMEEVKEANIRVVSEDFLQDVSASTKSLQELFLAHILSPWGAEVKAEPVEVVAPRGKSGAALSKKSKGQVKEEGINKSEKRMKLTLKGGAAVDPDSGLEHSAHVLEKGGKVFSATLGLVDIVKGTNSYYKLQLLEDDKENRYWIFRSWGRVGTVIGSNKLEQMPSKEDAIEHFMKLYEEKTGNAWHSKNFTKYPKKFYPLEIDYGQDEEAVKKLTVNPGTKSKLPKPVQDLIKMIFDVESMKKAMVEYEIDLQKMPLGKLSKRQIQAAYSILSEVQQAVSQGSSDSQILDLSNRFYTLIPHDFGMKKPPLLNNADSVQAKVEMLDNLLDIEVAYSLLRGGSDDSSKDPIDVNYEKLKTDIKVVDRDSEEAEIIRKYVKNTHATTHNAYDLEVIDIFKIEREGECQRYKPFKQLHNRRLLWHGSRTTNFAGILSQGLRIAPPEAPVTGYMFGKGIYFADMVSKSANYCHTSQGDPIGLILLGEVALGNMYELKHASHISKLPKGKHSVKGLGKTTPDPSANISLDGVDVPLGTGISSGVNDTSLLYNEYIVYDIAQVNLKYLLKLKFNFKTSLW
T2 sequence (Q9UGN5 whole entry): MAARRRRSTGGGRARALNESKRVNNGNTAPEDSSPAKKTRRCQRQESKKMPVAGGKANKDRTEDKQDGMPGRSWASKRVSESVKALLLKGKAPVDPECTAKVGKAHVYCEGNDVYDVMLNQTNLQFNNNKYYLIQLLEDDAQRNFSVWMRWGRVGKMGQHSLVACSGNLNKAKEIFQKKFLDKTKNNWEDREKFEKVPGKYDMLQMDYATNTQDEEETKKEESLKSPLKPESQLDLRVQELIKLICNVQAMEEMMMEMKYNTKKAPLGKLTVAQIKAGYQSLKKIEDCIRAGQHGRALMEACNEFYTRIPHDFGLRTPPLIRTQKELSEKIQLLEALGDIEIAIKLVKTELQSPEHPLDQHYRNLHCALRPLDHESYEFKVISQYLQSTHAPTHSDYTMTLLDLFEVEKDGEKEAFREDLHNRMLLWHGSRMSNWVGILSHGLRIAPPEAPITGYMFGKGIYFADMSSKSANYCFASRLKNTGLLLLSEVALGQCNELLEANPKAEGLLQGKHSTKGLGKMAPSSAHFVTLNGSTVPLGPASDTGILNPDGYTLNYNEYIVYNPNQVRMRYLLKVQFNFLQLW
T4 sequence (Q2NL67 whole entry): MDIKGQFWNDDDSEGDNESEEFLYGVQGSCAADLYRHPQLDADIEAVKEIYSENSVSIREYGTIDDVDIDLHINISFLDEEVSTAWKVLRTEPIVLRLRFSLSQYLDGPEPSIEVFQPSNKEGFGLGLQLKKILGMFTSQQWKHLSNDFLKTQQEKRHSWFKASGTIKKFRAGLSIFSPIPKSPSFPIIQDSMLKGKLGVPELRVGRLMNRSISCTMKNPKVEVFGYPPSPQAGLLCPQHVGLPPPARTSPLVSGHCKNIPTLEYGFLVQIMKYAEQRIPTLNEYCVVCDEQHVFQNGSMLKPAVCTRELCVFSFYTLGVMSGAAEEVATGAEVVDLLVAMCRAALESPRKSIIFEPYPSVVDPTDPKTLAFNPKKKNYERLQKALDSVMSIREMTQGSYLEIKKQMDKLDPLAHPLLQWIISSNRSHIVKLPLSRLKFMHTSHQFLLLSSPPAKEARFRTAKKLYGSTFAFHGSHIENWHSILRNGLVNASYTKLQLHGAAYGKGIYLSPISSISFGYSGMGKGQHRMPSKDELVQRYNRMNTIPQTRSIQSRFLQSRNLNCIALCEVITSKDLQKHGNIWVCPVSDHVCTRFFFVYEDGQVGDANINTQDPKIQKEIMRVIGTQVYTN

Structure (SMILES): [2H]C([2H])([2H])NC(=O)c1ccc(N2CCN(Cc3cnc4c(N)c(CC)c(=O)[nH]c4c3)CC2)c(F)n1 [Example 4, 5-(4-((8-Amino-7-ethyl-6-oxo-5,6-dihydro-1,5-naphthyridin-3-yl)methyl)piperazin-1-yl)-6-fluoro-N-(methyl-d3)picolinamide]
- IC50 (A549 PARP2-KO cell line; Homo sapiens, A549, read-out: PARP2-KO IC50): 7.7 nM
- PARP1 KO/PARP2 KO selectivity fold (A549 PARP2-KO cell line): >5222 fold
- IC50 (PARP11; enzyme activity): 422 nM
- PARP11 multiple vs PARP1 (PARP11; [5]): 880
- EC50 (PARP2 [1]): 382 nM
- inhibition on the enzyme activity at the highest concentration (A549 PARP1-KO cell lines; A549 PARP1-KO cell lines, 40 µM): no detectable inhibition
- IC50 (A549 PARP1-KO cell lines; Homo sapiens, A549, PARylation at the cellular level): > 40000 nM
- IC50 (PARP1 [2]): 0.48 nM
- PARP1/2 selectivity fold (PARP1 [2]; PARP2 vs PARP1): 39 fold
- Bottom (PARP2 [3]; PARP2, 0.25 hour): 4.3
- EC50 (PARP2 [3]; PARP2, 0.25 hour): 2330 nM
- Hillslope (PARP2 [3]; PARP2, 0.25 hour): 1.4
- Top (PARP2 [3]; PARP2, 0.25 hour): = 100.0
- Bottom (PARP2 [3]; PARP2, 0.5 hour): 1.0
- EC50 (PARP2 [3]; PARP2, 0.5 hour): 5470 nM
- Hillslope (PARP2 [3]; PARP2, 0.5 hour): 1.9
- Top (PARP2 [3]; PARP2, 0.5 hour): = 100.0
- Bottom (PARP2 [3]; PARP2, 1 hour): 0.8
- EC50 (PARP2 [3]; PARP2, 1 hour): > 10000 nM
- Hillslope (PARP2 [3]; PARP2, 1 hour): 2.1
- Top (PARP2 [3]; PARP2, 1 hour): = 100.0
- EC50 (PARP2 [3]; PARP2, 2 hour): > 10000 nM
- EC50 (PARP2 [3]; PARP2, 4 hour): > 10000 nM
- EC50 (PARP2 [3]; PARP2, 8 hour): > 10000 nM
- EC50 (PARP2 [3]; PARP2, 24 hour): > 10000 nM
- EC50 (PARP2 [3]; PARP2, 48 hour): > 10000 nM
- IC50 (PARP6; enzyme activity): > 10000 nM
- PARP6 multiple vs PARP1 (PARP6; [5]): ∞
- inhibition on cell proliferation at the highest concentration (DLD-1 WT; BRCA2-normal DLD-1 cell line, 10 µM): no detectable inhibition
- IC50 (DLD-1 WT; Homo sapiens, DLD-1, 168 h, BRCA2-normal, 7 days): > 10000 nM
- capability to induce PARP1-DNA trapping higher than that of Olaparib (PARP1 [4]; 2-hour time point, relative to Olaparib): 48 fold
- PARP1-DNA trapping activity stronger than that of AZD5305 (PARP1 [4]; 54-hour time point, relative to AZD5305): 14 fold
- time over which PARP1-DNA trapping activity could be maintained (PARP1 [4]; FP, PARP1): more than 54 hours
- Bottom (PARP1 [4]; PARP1, 0.25 hour): -8.7
- EC50 (PARP1 [4]; PARP1, 0.25 hour): 3.11 nM
- Hillslope (PARP1 [4]; PARP1, 0.25 hour): 2.8
- Top (PARP1 [4]; PARP1, 0.25 hour): 108.7
- Bottom (PARP1 [4]; PARP1, 0.5 hour): -6.3
- EC50 (PARP1 [4]; PARP1, 0.5 hour): 2.26 nM
- Hillslope (PARP1 [4]; PARP1, 0.5 hour): 2.9
- Top (PARP1 [4]; PARP1, 0.5 hour): 105.6
- Bottom (PARP1 [4]; PARP1, 1 hour): -4.2
- EC50 (PARP1 [4]; PARP1, 1 hour): 2.58 nM
- Hillslope (PARP1 [4]; PARP1, 1 hour): 3.1
- Top (PARP1 [4]; PARP1, 1 hour): 109.1
- Bottom (PARP1 [4]; PARP1, 2 hour): -0.8
- EC50 (PARP1 [4]; PARP1, 2 hour): 2.86 nM
- Hillslope (PARP1 [4]; PARP1, 2 hour): 3.0
- Top (PARP1 [4]; PARP1, 2 hour): 105.3
- Bottom (PARP1 [4]; PARP1, 4 hour): -5.6
- EC50 (PARP1 [4]; PARP1, 4 hour): 2.99 nM
- Hillslope (PARP1 [4]; PARP1, 4 hour): 2.4
- Top (PARP1 [4]; PARP1, 4 hour): 106.8
- Bottom (PARP1 [4]; PARP1, 8 hour): -6.8
- EC50 (PARP1 [4]; PARP1, 8 hour): 3.51 nM
- Hillslope (PARP1 [4]; PARP1, 8 hour): 2.6
- Top (PARP1 [4]; PARP1, 8 hour): 107.2
- Bottom (PARP1 [4]; PARP1, 24 hour): -4.4
- EC50 (PARP1 [4]; PARP1, 24 hour): 3.97 nM
- Hillslope (PARP1 [4]; PARP1, 24 hour): 1.5
- Top (PARP1 [4]; PARP1, 24 hour): 79.2
- Bottom (PARP1 [4]; PARP1, 30 hour): -8.8
- EC50 (PARP1 [4]; PARP1, 30 hour): 5.46 nM
- Hillslope (PARP1 [4]; PARP1, 30 hour): 1.2
- Top (PARP1 [4]; PARP1, 30 hour): 79.1
- Bottom (PARP1 [4]; PARP1, 48 hour): -5.6
- EC50 (PARP1 [4]; PARP1, 48 hour): 4.58 nM
- Hillslope (PARP1 [4]; PARP1, 48 hour): 2.0
- Top (PARP1 [4]; PARP1, 48 hour): 51.0
- Bottom (PARP1 [4]; PARP1, 54 hour): -12.8
- EC50 (PARP1 [4]; PARP1, 54 hour): 9.54 nM
- Hillslope (PARP1 [4]; PARP1, 54 hour): 0.8
- Top (PARP1 [4]; PARP1, 54 hour): 55.9
- inhibition on cell proliferation at the highest concentration (MDA-MB-231; BRCA1-normal MDA-MB-231 cell line, 10 µM): no detectable inhibition
- IC50 (MDA-MB-231; Homo sapiens, MDA-MB-231, 168 h, BRCA1-normal, 7 days, read-out: MDA-MB-231 IC50): > 10000 nM
